{"source": "patent US7282344B2", "about": "“Cation conducting GABAA receptors and their use” (Neurosearch A/S, priority 2001, dated 2007)", "biological_target": "T1, GABAA receptor α2 β3 γ2 (wt) (Homo sapiens, UniProt P18507+P28472+P47869)", "T1 construct": "expressed in transfected cells; host or cells: CHO-K1 (ATCC No. CCL61)", "T1 sequence (P47869 29-451)": "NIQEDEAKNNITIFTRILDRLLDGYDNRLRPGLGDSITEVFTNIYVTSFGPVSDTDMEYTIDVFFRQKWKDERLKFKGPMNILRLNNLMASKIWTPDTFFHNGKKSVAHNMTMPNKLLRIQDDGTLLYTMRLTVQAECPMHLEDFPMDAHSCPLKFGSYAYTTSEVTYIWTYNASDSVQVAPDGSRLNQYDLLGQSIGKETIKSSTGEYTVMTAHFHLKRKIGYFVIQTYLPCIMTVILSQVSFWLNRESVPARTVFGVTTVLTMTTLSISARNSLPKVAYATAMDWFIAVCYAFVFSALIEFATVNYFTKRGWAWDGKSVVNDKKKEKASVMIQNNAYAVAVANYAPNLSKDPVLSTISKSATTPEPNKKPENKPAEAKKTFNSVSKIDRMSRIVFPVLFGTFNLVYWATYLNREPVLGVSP", "T1 sequence (P28472 26-473)": "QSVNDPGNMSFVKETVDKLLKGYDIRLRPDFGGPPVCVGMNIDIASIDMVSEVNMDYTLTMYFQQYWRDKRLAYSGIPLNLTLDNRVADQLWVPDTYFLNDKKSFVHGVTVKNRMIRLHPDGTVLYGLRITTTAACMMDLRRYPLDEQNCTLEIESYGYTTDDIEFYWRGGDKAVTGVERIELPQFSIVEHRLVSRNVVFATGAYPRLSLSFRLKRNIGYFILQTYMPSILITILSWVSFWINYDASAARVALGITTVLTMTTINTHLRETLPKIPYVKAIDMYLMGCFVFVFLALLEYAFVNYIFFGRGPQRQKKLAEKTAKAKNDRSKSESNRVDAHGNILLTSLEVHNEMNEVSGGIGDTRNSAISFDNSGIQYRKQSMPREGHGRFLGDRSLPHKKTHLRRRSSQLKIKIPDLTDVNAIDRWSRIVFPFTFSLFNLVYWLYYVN", "T1 sequence (P18507 40-475)": "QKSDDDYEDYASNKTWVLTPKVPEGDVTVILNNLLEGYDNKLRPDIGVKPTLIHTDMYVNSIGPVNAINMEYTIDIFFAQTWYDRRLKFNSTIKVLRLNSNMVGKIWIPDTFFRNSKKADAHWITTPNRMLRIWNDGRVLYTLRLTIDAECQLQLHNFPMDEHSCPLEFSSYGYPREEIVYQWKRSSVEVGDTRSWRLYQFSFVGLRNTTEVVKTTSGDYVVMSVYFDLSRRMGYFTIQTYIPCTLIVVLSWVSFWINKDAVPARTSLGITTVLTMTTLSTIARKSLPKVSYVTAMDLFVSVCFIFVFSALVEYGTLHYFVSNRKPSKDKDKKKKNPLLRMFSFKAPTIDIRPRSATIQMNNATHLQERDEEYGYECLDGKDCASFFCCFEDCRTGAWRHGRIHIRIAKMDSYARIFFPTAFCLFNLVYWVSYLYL", "experiment": "[^3H]-Muscimol binding, wild-type receptor", "conditions": "wt α2 β3 γ2, membranes from CHO-K1 cells", "description": "Binding studies were performed using standard methods. Membranes were prepared from CHO-K1 cells expressing recombinant GABAAR subunits. The cells were washed in PBS (Life Technologies), trypsinized, washed twice in tris-citrate buffer (50 mM, pH 7.1) and centrifuged for 10 minutes at 5,000 g.\nMembranes were resuspended in membrane wash buffer [20 mM KH2PO4K2HPO4, pH 7.5, 50 mM KCl, 0.025% (w/v) NaN3, and various protease inhibitors (1 mM EDTA, 2 mM benzamidine chloride, 0.1 mM benzethonium chloride, 50 U/ml bacitracin, 0.3 mM phenylmethylsulfonyl fluoride, 10 mg/I ovomucoid trypsin inhibitor, 10 mg/l soybean trypsin inhibitor)] and centrifuged for 30 minutes at 177,000 g and 4° C. The pellet was resuspended in binding assay buffer (20 mM KH2PO4/K2HPO4, pH 7.5 and 100 mM KCl) to a protein concentration of 1 mg/ml and homogenized just before use. Binding was performed with 1, 3, 10, 30, 100 or 300 nM of [^3H]-muscimol (20 Ci/mmol, Dupont-New England Nuclear) in triplicate in a final volume of 250 μl containing 200 μg of protein, and non-specific binding was determined in the presence of 1 mM GABA (Sigma). Samples were incubated at 4° C. for 30 minutes and labelled membranes were harvested on a Brandel cell harvester using GF/B filters (Whatman). The filters were washed with 3×4 ml binding assay buffer and the amount of radioactivity was determined by liquid scintillation counting. […]", "data": [{"smiles": "NCc1cc(=O)[nH]o1", "note": "[[^3H] Muscimol, Muscimol]", "values": [{"measurement": "Kd", "value": "54.7 ± 14.7", "unit": "nM"}]}]}
